Measured values: US10711004B2 (Genentech, Inc., priority 2018, dated 2020)
Where two headings read alike, the source gives them in different places.

Target: human TRPA1 channel (Homo sapiens (Human), UniProt O75762)
Test: hTRPA1 CHO Ca2+ FLIPR Tetra assay, block of cinnamaldehyde induced calcium influx
Type: cell-based
Settings: CHO cells expressing TRPA1, Hill coefficient fixed to 1.5
Method: CHO cells expressing TRPA1 were plated into 384-well plates, incubated overnight at 37° C., and loaded with BD calcium indicator dye for 1 hr at 37° C. followed by 15 minutes at room temperature. The assay buffer was Hank's Balanced Salt Solution (HBSS) containing 20 mM HEPES (pH readjusted to 7.4) along with 0.02% BSA.
Following dye load and plate cool down, compounds were added to the cells using FLIPR Tetra. Plates were then incubated with compounds for 10 minutes or 90 minutes at room temperature prior to adding agonist. Following this incubation, about an EC50 concentration of cinnamaldehyde (75) was added to active the channels and block of cinnamaldehyde induced calcium influx was measured.
Fixing the Hill coefficient will generally reduce variability of the IC50 determination. The IC50 results were individually examined to make sure the MIN and MAX points were set correctly prior to validation of the results.

[1] = read-out: hTRPA1 IC50 (10 min), compounds incubated 10 minutes at room temperature before cinnamaldehyde agonist
[2] = read-out: hTRPA1 IC50 (90 min), compounds incubated 90 minutes at room temperature before cinnamaldehyde agonist

Chain of human TRPA1 channel (O75762 whole entry): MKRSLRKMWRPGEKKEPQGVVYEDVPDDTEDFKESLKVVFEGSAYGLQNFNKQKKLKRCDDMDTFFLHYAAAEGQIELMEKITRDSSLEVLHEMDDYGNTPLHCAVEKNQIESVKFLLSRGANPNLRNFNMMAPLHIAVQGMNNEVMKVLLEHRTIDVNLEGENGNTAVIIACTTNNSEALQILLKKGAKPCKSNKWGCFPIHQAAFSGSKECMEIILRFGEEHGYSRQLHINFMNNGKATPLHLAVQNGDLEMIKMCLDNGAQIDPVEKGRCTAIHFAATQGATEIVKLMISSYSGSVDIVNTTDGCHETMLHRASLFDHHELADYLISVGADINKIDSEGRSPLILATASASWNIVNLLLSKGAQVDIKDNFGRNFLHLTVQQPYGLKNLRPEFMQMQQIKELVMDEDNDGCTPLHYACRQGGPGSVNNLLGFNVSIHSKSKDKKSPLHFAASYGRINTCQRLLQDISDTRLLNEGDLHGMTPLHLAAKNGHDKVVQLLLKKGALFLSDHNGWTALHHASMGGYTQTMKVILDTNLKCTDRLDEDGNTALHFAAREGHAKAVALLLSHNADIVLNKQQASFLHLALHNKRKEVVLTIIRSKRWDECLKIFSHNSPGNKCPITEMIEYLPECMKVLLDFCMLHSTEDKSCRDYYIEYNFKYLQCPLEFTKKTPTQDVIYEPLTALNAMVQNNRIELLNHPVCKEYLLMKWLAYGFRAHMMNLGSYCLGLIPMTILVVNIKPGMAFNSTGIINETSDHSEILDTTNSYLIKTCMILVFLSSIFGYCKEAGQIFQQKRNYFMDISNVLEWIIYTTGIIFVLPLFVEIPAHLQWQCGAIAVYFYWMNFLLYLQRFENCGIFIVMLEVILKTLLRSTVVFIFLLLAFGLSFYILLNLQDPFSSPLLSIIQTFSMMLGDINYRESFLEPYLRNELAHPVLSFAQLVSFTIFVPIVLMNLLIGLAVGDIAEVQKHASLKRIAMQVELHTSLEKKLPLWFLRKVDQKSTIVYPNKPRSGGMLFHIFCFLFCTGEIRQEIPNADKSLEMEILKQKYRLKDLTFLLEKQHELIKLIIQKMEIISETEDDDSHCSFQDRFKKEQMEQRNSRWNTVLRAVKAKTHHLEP

IC50 [1] [nM]	IC50 [2] [nM]	Compound
37.1	32	Cn1cnc2ncn(Cc3nc([C@H]4[C@@H]5CN(c6cc(Cl)cc(C#N)c6)C[C@@H]54)no3)c(=O)c21 [Example Compound 193, 3-chloro-5-((1R,5S,6r)-6-(5-((7-methyl-6-oxo-6,7-dihydro-1H-purin-1-yl)methyl)-1,2,4-oxadiazol-3-yl)-3-azabicyclo[3.1.0]hexan-3-yl)benzonitrile]
53.9	29	CCNc1nc2ncn(Cc3nc([C@H]4[C@@H]5C=C(c6ccccc6)C[C@@H]54)no3)c(=O)c2n1C [Example Compound 246, 8-(ethylamino)-7-methyl-1-[[3-[(1S,5S,6R)-3-phenyl-6-bicyclo[3.1.0]hex-2-enyl]-1,2,4-oxadiazol-5-yl]methyl]purin-6-one]
778	–	Cn1cnc2ncn(Cc3nc([C@H]4[C@@H]5CN(c6cccnc6)C[C@@H]54)no3)c(=O)c21 [Example Compound 18, 7-methyl-1-[[3-[(1R,5S,6r)-3-(3-pyridyl)-3-azabicyclo[3.1.0]hexan-6-yl]-1,2,4-oxadiazol-5-yl]methyl]purin-6-one]
66.9	18	CC(=O)Nc1nc2ncn(Cc3nc([C@H]4[C@@H]5C=C(c6ccccc6)C[C@@H]54)no3)c(=O)c2n1C [Example Compound 241, N-[7-methyl-6-oxo-1-[[3-[(1S,5S,6R)-3-phenyl-6-bicyclo[3.1.0]hex-2-enyl]-1,2,4-oxadiazol-5-yl]methyl]purin-8-yl]acetamide]
16.6	19	Cn1cnc2ncn(Cc3nc([C@H]4C[C@H](Cc5cccc(Cl)c5)C4)no3)c(=O)c21 [Example Compound 257, 1-[[3-[trans-3-[(3-chlorophenyl)methyl]cyclobutyl]-1,2,4-oxadiazol-5-yl]methyl]-7-methyl-purin-6-one]
20.1	15	O=c1c2cccnc2ncn1Cc1nc([C@H]2[C@@H]3CN(c4ccccc4)C[C@@H]32)no1 [Example Compound 194, 3-((3-((1R,5S,6r)-3-phenyl-3-azabicyclo[3.1.0]hexan-6-yl)-1,2,4-oxadiazol-5-yl)methyl)pyrido[2,3-d]pyrimidin-4(3H)-one]
42.6	35	COCCNc1nc2ncn(Cc3nc([C@@H]4[C@H]5C=C(c6ccccc6)C[C@H]54)no3)c(=O)c2n1C [Example Compound 260, 8-(2-methoxyethylamino)-7-methyl-1-[[3-[(1R,5R,6S)-3-phenyl-6-bicyclo[3.1.0]hex-2-enyl]-1,2,4-oxadiazol-5-yl]methyl]purin-6-one]
14	–	Cc1ccnc2ncn(Cc3nc([C@@H]4[C@H]5C=C(c6ccccc6)C[C@H]54)no3)c(=O)c12 [Example Compound 227, 5-methyl-3-((3-((1R,5R,6S)-3-phenylbicyclo[3.1.0]hex-2-en-6-yl)-1,2,4-oxadiazol-5-yl)methyl)pyrido[2,3-d]pyrimidin-4(3H)-one]
305	150	Cn1cnc2cnn(Cc3nc([C@H]4[C@@H]5CN(c6cc(Cl)ccn6)C[C@@H]54)no3)c(=O)c21 [Example Compound 148, 5-((3-((1R,5S,6r)-3-(4-chloropyridin-2-yl)-3-azabicyclo[3.1.0]hexan-6-yl)-1,2,4-oxadiazol-5-yl)methyl)-3-methyl-3,5-dihydro-4H-imidazo[4,5-d]pyridazin-4-one]
58.3	35	O=c1c2ccc(Cl)nc2ncn1Cc1nc([C@H]2[C@@H]3CN(c4cccc(F)c4)C[C@@H]32)no1 [Example Compound 272, 7-chloro-3-[[3-[(1R,5S)-3-(3-fluorophenyl)-3-azabicyclo[3.1.0]hexan-6-yl]-1,2,4-oxadiazol-5-yl]methyl]pyrido[2,3-d]pyrimidin-4-one]
39	–	Cc1ccnc2ncn(Cc3nc([C@H]4[C@@H]5CN(c6ccccc6)C[C@@H]54)no3)c(=O)c12
6.12	3.1	Cn1nnc2ncn(Cc3nc([C@H]4[C@@H]5C=C(c6ccccc6)C[C@@H]54)no3)c(=O)c21 [Example Compound 108, 1-methyl-6-((3-((1 S,5 S,6R)-3-phenylbicyclo[3.1.0]hex-2-en-6-yl)-1,2,4-oxadiazol-5-yl)methyl)-1,6-dihydro-7H-[1,2,3]triazolo[4,5-d]pyrimidin-7-one]
14.6	–	Cc1cncc2ncn(Cc3nc([C@H]4[C@@H]5CN(c6ccccc6)C[C@@H]54)no3)c(=O)c12
112	–	Cn1cnc2ncn(Cc3nc([C@H]4[C@@H]5CN(c6cccc(C7CC7)c6)C[C@@H]54)no3)c(=O)c21
19.1	6.3	Cn1cnc2ncn(Cc3nc([C@@H]4[C@H]5C=C(c6ccc(F)c(F)c6F)C[C@H]54)no3)c(=O)c21 [Example Compound 242, 7-methyl-1-[[3-[(1R,5R,6S)-3-(2,3,4-trifluorophenyl)-6-bicyclo[3.1.0]hex-2-enyl]-1,2,4-oxadiazol-5-yl]methyl]purin-6-one]
61.1	50	Cc1ncn2ncn(Cc3nc([C@H]4[C@@H]5CN(c6cc(Cl)ccn6)C[C@@H]54)no3)c(=O)c12 [Example Compound 116, 3-((3-((1R,5S,6r)-3-(4-chloropyridin-2-yl)-3-azabicyclo[3.1.0]hexan-6-yl)-1,2,4-oxadiazol-5-yl)methyl)-5-methylimidazo[5,1-f][1,2,4]triazin-4(3H)-one]
11.9	6.5	O=c1c2cccc(=O)n2ccn1Cc1nc([C@@H]2[C@H]3C=C(c4ccccc4)C[C@H]32)no1 [Example Compound 275, 2-[[3-[(1R,5R,6S)-3-phenyl-6-bicyclo[3.1.0]hex-2-enyl]-1,2,4-oxadiazol-5-yl]methyl]pyrido[1,2-a]pyrazine-1,6-dione]
253	160	Cn1nnc2ncn(Cc3nc([C@H]4C[C@](F)(c5ccc(Cl)cc5)C4)no3)c(=O)c21 [Example Compound 149, 6-((3-((1s,3s)-3-(4-chlorophenyl)-3-fluorocyclobutyl)-1,2,4-oxadiazol-5-yl)methyl)-1-methyl-1,6-dihydro-7H-[1,2,3]triazolo[4,5-d]pyrimidin-7-one]
57.3	–	Cn1cnc2ncn(Cc3nc([C@H]4C[C@H](c5ccc6ccccc6c5)C4)no3)c(=O)c21 [Example Compound 231, 7-methyl-1-((3-((1r,3r)-3-(naphthalen-2-yl)cyclobutyl)-1,2,4-oxadiazol-5-yl)methyl)-1,7-dihydro-6H-purin-6-one]
–	4.8	Cc1cncc2ncn(Cc3nc([C@H]4C[C@](O)(c5ccc6ccccc6c5)C4)no3)c(=O)c12 [Example Compound 232, 3-((3-((1s,3s)-3-hydroxy-3-(naphthalen-2-yl)cyclobutyl)-1,2,4-oxadiazol-5-yl)methyl)-5-methylpyrido[3,4-d]pyrimidin-4(3H)-one]
21.3	4.4	Cn1cnc2ncn(Cc3nc([C@H]4[C@@H]5CN(c6cccc(Cl)c6F)C[C@@H]54)no3)c(=O)c21 [Example Compound 236, 1-((3-((1R,5S,6r)-3-(3-chloro-2-fluorophenyl)-3-azabicyclo[3.1.0]hexan-6-yl)-1,2,4-oxadiazol-5-yl)methyl)-7-methyl-1,7-dihydro-6H-purin-6-one]
